Results as given in patent publication US20240300904A1, “PYRIDAZINONES FOR THE TREATMENT OR PREVENTION OF HYPERTENSION” (UNIVERSITETET I OSLO, priority 2021, published 2024).

Experiments:
[1] = tested on: rat aortic rings; assay: Vasorelaxation: ANP-mediated relaxation of rat aortic rings; conditions: conc. response of ANP in the absence (ANP) or presence of 10 μM compound, L-NAME present
Method: Male Sprague-Dawley (6-8 weeks old) rats were killed by cervical dislocation. The thoracic aorta was dissected and rings (˜4 mm length) mounted in organ baths containing physiological salt solution (PSS; composition in mM: NaCl 119, KCl 4.7, CaCl2 2.5, MgSO4 1.2, NaHCO3 25, KH2PO4 1.2, and glucose 5.5), maintained at 37° C. and gassed with 5% CO2 in O2. Changes in isometric tension were measured in the tissues under a basal tension of 1 g. After equilibration, vessels were repeatedly contracted with KCl (48 mM) until responses were reproducible. A cumulative concentration-response curve was then constructed to the thromboxane receptor agonist 9,11-dideoxy-11α,9α-epoxymethano-prostaglandin F2α (U46619; 10 nm-1 μM). Arteries were then treated with the nitric oxide synthase (NOS) inhibitor L-NG-nitroarginine methyl ester (300 μM; to block the production of endogenous nitric oxide) and pre-contracted with an EC80 concentration of U46619. Once a stable response was achieved, cumulative concentration-response curves were constructed to ANP (0.001-1 μM) in the absence or presence of Compound 1 or Compound 2 (all 10 μM, incubated for 30 min prior to the administration of ANP).

[2] = tested on: HeLa cells; assay: MTT assay (cytotoxicity); format: cell-based; conditions: 24 and 48 h, compared with compounds 3 and 11
Method: Cells were incubated for 24 and 48 h with increasing concentrations of the indicated compound. The data represent formazan formation (absorbance) as a percentage of the negative control (1% DMSO).
The MTT (3-(4,5-dimethylthiazol-2-yl)-2,5-diphenyltetrazolium bromide) tetrazolium reduction assay was used to measure cytotoxicity of the compounds in vitro. Viable cells with active metabolism convert MTT into a purple colored formazan product with an absorbance maximum near 570 nm. HeLa cells were plated in 96-well plates in culture medium (DMEM (Dulbecco's Modified Eagle's Medium, Gibco®, ThermoFischer Scientific) supplemented with 10% Fetal Bovine Serum (FBS), 100 U/ml penicillin, 0.1 mg/ml streptomycin) the day before experiments. Cells were incubated for 24 or 48 h at 37° C. with increasing concentrations of each compound (in 1% DMSO). 1% DMSO and 20 mM H2O2 in culture medium were used as negative and positive control, respectively. MTT solution at a final concentration of 0.45 mg/ml was added to the wells and cells incubated for 1 to 4 hours at 37° C. Solubilization solution (40% (vol/vol) dimethylformamide (DMF), 2% (vol/vol) glacial acetic acid and 16% (wt/vol) sodium dodecyl sulfate (SDS)) was added to each well to dissolve formazan crystals. Absorbance was measured at 570 nm.

[3] = target: T1, human (h) natriuretic peptide receptor A (hNPR-A) (Homo sapiens, UniProt P16066); assay: AlphaScreen assay for cGMP: BNP-mediated NPR-A activity (cGMP production); format: cell-based; conditions: conc. response of compound + 0.1 nM BNP
T1 construct: expressed in transfected cells
T1 sequence (P16066 33-1061): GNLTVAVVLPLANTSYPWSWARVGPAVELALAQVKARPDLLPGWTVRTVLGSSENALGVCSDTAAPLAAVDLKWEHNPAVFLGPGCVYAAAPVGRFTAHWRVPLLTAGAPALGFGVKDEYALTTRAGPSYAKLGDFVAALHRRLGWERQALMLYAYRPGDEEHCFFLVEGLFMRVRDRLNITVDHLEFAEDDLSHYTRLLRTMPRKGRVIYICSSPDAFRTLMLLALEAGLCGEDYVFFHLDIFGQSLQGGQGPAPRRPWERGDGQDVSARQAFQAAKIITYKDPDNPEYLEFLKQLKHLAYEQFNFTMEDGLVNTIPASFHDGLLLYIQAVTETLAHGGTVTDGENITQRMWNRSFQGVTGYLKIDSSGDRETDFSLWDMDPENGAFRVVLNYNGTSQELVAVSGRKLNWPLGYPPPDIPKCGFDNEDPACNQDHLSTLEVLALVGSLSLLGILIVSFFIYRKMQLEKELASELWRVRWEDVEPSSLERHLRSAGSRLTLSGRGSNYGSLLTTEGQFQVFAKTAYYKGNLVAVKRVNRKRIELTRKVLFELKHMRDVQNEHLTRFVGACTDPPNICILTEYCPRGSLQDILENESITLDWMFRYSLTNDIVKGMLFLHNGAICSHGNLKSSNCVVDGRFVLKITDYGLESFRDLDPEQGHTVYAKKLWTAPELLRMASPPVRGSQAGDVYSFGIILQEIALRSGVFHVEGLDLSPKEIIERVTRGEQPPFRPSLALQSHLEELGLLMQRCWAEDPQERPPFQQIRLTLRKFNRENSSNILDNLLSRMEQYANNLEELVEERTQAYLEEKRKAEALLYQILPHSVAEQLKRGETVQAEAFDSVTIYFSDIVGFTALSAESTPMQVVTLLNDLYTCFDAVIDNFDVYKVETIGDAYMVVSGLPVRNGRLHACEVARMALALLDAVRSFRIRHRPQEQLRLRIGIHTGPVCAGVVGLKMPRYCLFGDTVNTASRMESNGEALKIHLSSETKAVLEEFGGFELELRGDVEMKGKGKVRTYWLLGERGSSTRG
T1 sequence (P16860 103-134 partner limits assumed): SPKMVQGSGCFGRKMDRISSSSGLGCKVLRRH
Method: QBIHEK293A cells stably transfected with human (h) natriuretic peptide receptor A (hNPR-A) and hNPR-B were made as described in Bach et al., Naunyn Schmiedebergs Arch. Pharmacol. 2014; 387:5-14. Cells were grown in DMEM (Dulbecco's Modified Eagle's Medium, Gibco®, ThermoFischer Scientific) supplemented with 10% Fetal Bovine Serum (FBS), 100 U/ml penicillin, 0.1 mg/ml streptomycin, and 0.4 mg/ml G418 (geneticin) as selection antibiotic.
The AlphaScreen assay for cGMP (Perkin Elmer) was performed as described in Bach et al. (see above). NPR-A and NPR-B expressing HEK293 cells were split the day before the experiment and harvested using an EDTA solution (Versene, Invitrogen, ThermoFischer Scientific). A final concentration of 6000 cells/well was re-suspended in stimulation buffer (5 mM HEPES in HBSS at pH 7.4, 0.1% BSA) with IBMX (0.7 mM final). Compounds were dissolved in stimulation buffer and added to wells in increasing concentrations. Cells were incubated with the indicated compounds 20 minutes before addition of agonists (human BNP, human CNP or human proBNP) in various concentrations. Cells were stimulated for 20 minutes with agonist before the reactions were stopped (i.e. cells lysed) by adding the AlphaScreen Acceptor bead mix (Acceptor beads-anti-cGMP antibody and 0.5% Tween-20 in 5 mM HEPES buffer at pH 7.4). After 1 hour incubation, the Donor bead mix (Donor beads, biotinylated cGMP, 0.5% Tween-20 in 5 mM HEPES buffer at pH 7.4) was added (40 μl total volume) and incubation continued for 2 hours. The luminescence signals were analyzed quantitatively by reading of the plates on the EnVision® Multilabel Plate Reader (Perkin Elmer) using AlphaScreen emission 570 nm filter.

[4] = target: T2, β1-adrenergic receptor (Homo sapiens, UniProt P08588); assay: Safety pharmacology panel (SafetyScan E/IC50 ELECT); format: cell-based; conditions: minor activity; 78-target panel
T2 construct: purchased Discover X/Eurofins SafetyScan E/IC50 ELECT
T2 sequence (P08588 whole entry): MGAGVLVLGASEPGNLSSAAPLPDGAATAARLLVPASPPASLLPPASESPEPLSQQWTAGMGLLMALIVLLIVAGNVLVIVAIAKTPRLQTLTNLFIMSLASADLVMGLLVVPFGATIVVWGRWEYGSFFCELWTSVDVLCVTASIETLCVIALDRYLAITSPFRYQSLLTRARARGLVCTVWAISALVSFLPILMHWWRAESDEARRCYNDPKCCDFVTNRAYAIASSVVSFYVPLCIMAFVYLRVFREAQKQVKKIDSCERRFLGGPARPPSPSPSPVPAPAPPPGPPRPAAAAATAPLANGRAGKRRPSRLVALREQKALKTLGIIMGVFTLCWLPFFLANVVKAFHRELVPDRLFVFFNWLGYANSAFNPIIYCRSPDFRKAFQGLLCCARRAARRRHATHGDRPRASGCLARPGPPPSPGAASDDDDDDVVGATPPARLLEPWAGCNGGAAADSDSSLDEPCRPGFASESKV

[5] = target: T3, dopamine D1-receptor (Homo sapiens, UniProt P21728); assay: as above; format: cell-based; conditions: minor activity; 78-target panel
T3 construct: purchased Discover X/Eurofins SafetyScan E/IC50 ELECT
T3 sequence (P21728 whole entry): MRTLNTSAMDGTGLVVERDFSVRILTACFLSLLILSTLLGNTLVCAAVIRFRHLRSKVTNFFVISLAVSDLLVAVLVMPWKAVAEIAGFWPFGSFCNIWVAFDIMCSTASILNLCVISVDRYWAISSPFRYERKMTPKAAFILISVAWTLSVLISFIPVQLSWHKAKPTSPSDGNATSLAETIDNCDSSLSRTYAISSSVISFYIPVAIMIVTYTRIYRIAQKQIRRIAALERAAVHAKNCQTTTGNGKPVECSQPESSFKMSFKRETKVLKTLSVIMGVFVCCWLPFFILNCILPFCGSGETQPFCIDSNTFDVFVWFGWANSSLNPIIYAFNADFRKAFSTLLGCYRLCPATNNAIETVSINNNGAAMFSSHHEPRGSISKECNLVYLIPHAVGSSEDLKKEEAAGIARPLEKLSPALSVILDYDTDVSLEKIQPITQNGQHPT

[6] = target: T4, β2-adrenergic receptor (Homo sapiens, UniProt P07550); assay: as above; format: cell-based; conditions: minor activity; 78-target panel
T4 construct: purchased Discover X/Eurofins SafetyScan E/IC50 ELECT
T4 sequence (P07550 whole entry): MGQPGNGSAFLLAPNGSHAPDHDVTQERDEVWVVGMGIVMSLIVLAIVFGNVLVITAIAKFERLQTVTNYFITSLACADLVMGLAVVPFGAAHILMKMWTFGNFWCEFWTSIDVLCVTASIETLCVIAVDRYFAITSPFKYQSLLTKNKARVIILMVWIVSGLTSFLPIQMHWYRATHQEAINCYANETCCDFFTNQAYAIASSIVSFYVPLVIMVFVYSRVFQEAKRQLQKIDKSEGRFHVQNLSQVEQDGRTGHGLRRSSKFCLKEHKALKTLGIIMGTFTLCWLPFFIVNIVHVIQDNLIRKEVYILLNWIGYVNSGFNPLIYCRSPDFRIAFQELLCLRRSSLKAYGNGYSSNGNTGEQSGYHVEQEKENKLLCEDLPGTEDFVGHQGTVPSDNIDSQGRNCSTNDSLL

[7] = Cytotoxicity screening (Cyprotex Discovery Ltd.); format: cell-based

EC50 ([3]; NPR-A-expressing HEK293 cells, read-out: -LogEC50 (compound) (converted)) [nM] | Emax ([3]; percentage of maximum BNP-mediated cGMP production, read-out: Max Response) [%] | Compound | -LogEC50 (ANP) [1] | toxicity in MTT assay relative to corresponding dichloro compounds [2] | IC50 [4] [µM] | IC50 [5] [µM] | IC50 [6] [µM] | non-cytotoxic concentration relative to EC50 at the target ([7]; 15 μM versus EC50 of compound 24 at the target) | cytotoxic effects (cell count, nuclear size, DNA structure, cell membrane permeability, mitochondrial mass, mitochondrial membrane potential, cytochrome c) ([7]; at concentrations below 15 μM)
 |  | ANP: atrial natriuretic peptide, endogenous NPR-A agonist used in vasorelaxation | 8.3 |  |  |  |  |  | 
200 | 37.8 | O=C(Cn1nccc(Cl)c1=O)c1ccc(Cl)cc1Cl [Compound 24, 4-chloro-2-(2-(2,4-dichlorophenyl)-2-oxoethyl) pyridazin-3(2H)-one] |  | lower toxicity | > 6 | > 6 | > 6 | 70-80 fold | did not show any cytotoxic effects
